Read-outs that look alike come from different tables or passages of the source.
Assays:
[1] = tested on: KG-1a CD34+ cells; assay: Intracellular ROS measurement (DCFH-DA / DHE); format: cell-based, human; conditions: 6 μM; blocked by NAC pretreatment
Method: KG-1a CD34^+ cells and other sorted primary APCs (5 × 10^5) were plated in FBS-free IMDM medium in 12-well plates (Corning) and were treated with 5 μM of Ara-C and 6 μM PepE or DMAPE in the presence or absence of 5 mM NAC for 2 h. The ROS indicator DCFH-DA (10 μM) or DHE (10 μM) in fresh FBS-free medium was added to each well, and further incubated in the dark for 30 min at 37 °C. The cells were visualized and photographed under an Olympus inverted fluorescence microscope IX-73 (Tokyo, Japan) with Metamorph software (Molecular Devices, Downingtown, PA, USA).

[2] = tested on: KG-1a CD34+ cells; assay: Annexin V-FITC/PI apoptosis assay; format: cell-based, human; conditions: 6 μM; for cell apoptosis (early + late): 12 h; for apoptotic population (early + late): 24 h
Text: The cells were harvested and washed twice with PBS. The apoptotic cells, necrotic cells, and live cells were identified by PI and Annexin V-FITC staining assay following the manufacturer's instructions. Data were obtained and analyzed using a BD Accuri™ C6 flow cytometer (BD Biosciences, San Jose, CA, USA) with CellQuest software (BD Biosciences).

[3] = Stability of the analytes in rat plasma (UFLC-MS/MS); format: in vitro ADME; conditions: for Freeze-thaw 3 cycles RE (%) / Store at -20℃ for 24h RE (%) / Store at auto-sampler RE (%): rat plasma, n=6; for stability in rat plasma samples: −20 °C for 15 days, three freeze/thaw cycles, room temperature 6 h, autosampler 4 °C 12 h
[4] = Pharmacokinetic study of DMAPE in rats; format: in vivo, Sprague–Dawley rats; conditions: for MRT last: read-out: MRT 0-t; for MRT inf: read-out: MRT 0-∞
Text: The UFLC-MS/MS system consisted of a Prominence™ UFLC system (Shimadzu, Kyoto, Japan) coupled with a QTRAP™ 5500 MS/MS system (Applied Biosystems/MDS SCIEX, Foster City, CA, USA) and controlled by the Analyst 1.5.2 software. MS‐grade methanol and acetonitrile were purchased from Merck (Darmstadt, Germany). Ultra‐pure water was generated using a MilliQ™ direct water purification system (Merck–Millipore, Billerica, MA, USA). The mass spectra and chromatographic conditions, method validations, standard and sample preparation for simultaneous determination of DMAPE and its parent drug PepE in rat plasma are provided in the Additional method in Supplementary Materials.
Male Sprague–Dawley rats weighing 200 ± 20 g were supplied by the Qinglongshan Experimental Animal Breeding Company (Nanjing, China). The experiment protocol was approved by the Animal Ethics Committee of Nanjing University of Chinese Medicine (Nanjing, China). The rats were housed under controlled environmental conditions (temperature 25 ± 2 °C, relative humidity 50 ± 10%) with free access to standard laboratory food and water. Before drug administration, the rats were randomly divided into two groups (eight rats per group) and fasted for 12 h with access to water. DMAPE phosphate salt aqueous solution was i. g. (50 mg/kg) or i. v. (50 mg/kg) administrated. Blood samples were collected from the tail vein into heparinized Eppendorf tubes using lithium heparin‐containing microvettes. The plasma was obtained by centrifugation of the blood at 5000 rpm for 10 min and then frozen at −20 °C until analysis. Pharmacokinetic parameters were calculated using the DAS 2.1.1 software (Pharmacological Society of China, China) using non-compartmental analysis.

[5] = tested on: TrxR1 KD cells (KG-1a CD34+); assay: CCK-8 viability in TrxR1 knockdown KG-1a CD34+ cells; format: cell-based, human; conditions: 48 h
Method: (§1) Unless otherwise mentioned, 2 × 10^4 cells were seeded at 96-well plates (Corning, New York, USA) in the IMDM-based serum-free media for 1 h. Then, the cells were incubated with different concentrations of PepE and DMAPE at 37 °C in a 5% CO2 incubator for 48 h. At the end of the treatment, 10 μL CCK-8 solution was added to each well and incubated for an additional 2 h at 37 °C, and the absorbance at 450 nm was measured with a microplate reader (Thermo Scientific, Multiskan GO, Finland). Inhibition ratio (%) was calculated as [(absorbance of control − absorbance of the test sample)/absorbance of control] x 100%.
For TrxR1 knockdown experiment, KG-1a CD34^+ cells were seeded in a six-well plate at 2.5 × 10^5/well in antibiotic-free IMDM medium for 24 h; then cells were washed once with 2 ml of shRNA transfection medium (Santa Cruz Biotech, sc-108062) and transfected with either TrxR1 shRNA plasmid (Santa Cruz Biotech, sc-36750-SH) or Control shRNA plasmid (negative control, Santa Cruz Biotech, sc-108060) according to the manufacturer's instructions. Briefly, for each transfection, 0.1 ml of shRNA (TrxR1 or control) duplex solution (containing 1 μg of shRNA plasmids) and 0.1 ml of transfection reagent (Santa Cruz Biotech, sc-108061) were gently mixed and incubated at room temperature for 30 min. […] The knockdown efficiencies were evaluated by western blot and RT-qPCR analyses.

[6] = tested on: CD34+ NBM cells and hBMSCs; assay: CCK-8 cell viability assay on normal CD34+ NBM cells and hBMSCs; format: cell-based, human; conditions: 48 h; for toxicity on control CD34+ NBM cells and hBMSCs: 6 μM; for effects on NBM and hBMSC cells: 12 μM
Method: The mononuclear cells were further enriched for CD34 positive cells using the MACS CD34 MicroBead kit following the manufacturer's protocol. Enriched CD34 cell-purity was measured by flow cytometry-based quantification of cells stained using an anti-CD34-FITC antigen. Isolated CD34^+ cells were pre-incubated in the IMDM-based serum-free media for 1 h before the addition of drugs. PepE was dissolved in DMSO to make a 100 mM stock solution and stored in aliquots at – 20 °C. The 100 mM stock solution was diluted with DMSO to 10 mM and then diluted with PBS to 1 mM before treating the cells at the indicated concentrations. DMAPE and Ara-C were diluted in PBS to 1 mM concentration before use.
as §1

[7] = male, Sprague-Dawley, po, rat plasma, DMAPE 50 mg/kg intragastric
[8] = male, Sprague-Dawley, rat, plasma, po, 50 mg/kg, rat plasma, DMAPE 50 mg/kg intragastric
[9] = male, Sprague-Dawley, rat plasma, DMAPE 50 mg/kg intravenous

Row | Structure (SMILES) | ROS level by DCFH-DA staining [1] | cell apoptosis (early + late) [2] [%] | apoptotic population (early + late) [2] [%] | Freeze-thaw 3 cycles RE (%) ([3]; 5 ng/ml) | Store at -20℃ for 24h RE (%) ([3]; 5 ng/ml) | Store at auto-sampler RE (%) ([3]; 5 ng/ml) | Freeze-thaw 3 cycles RE (%) ([3]; 200 ng/ml) | Store at -20℃ for 24h RE (%) ([3]; 200 ng/ml) | Store at auto-sampler RE (%) ([3]; 200 ng/ml) | Freeze-thaw 3 cycles RE (%) ([3]; 1000 ng/ml) | Store at -20℃ for 24h RE (%) ([3]; 1000 ng/ml) | Store at auto-sampler RE (%) ([3]; 1000 ng/ml) | stability in rat plasma samples [3] | AUC(0-inf) [4, 7] [ng·h/mL] | AUC(0-t) [4, 7] [ng·h/mL] | Cmax [4, 7] [ng/mL] | half-life [4, 7] [h] | MRT last [4, 7] [h] | MRT inf [4, 7] [h] | Tmax [4, 8] [h] | further results
1 | C=C1C(=O)OC[C@H]1C(c1cc(OC)c2c(c1)OCO2)c1cc(OC)c2c(c1)OCO2 [PepE, Peperomin E] | burst of ROS | ~65 | ~85 | -11.5 | 4.4 | -10.1 | -13.2 | 11.9 | -10.5 | -3.6 | 1.7 | -7.2 | stable | 10700 ± 2930 | 10600 ± 2930 | 2300 ± 270 | 7.02 ± 1.3 | 7.32 ± 0.82 | 7.75 ± 0.74 | ≤ 0.85 | Tmax ([4]; male, Sprague-Dawley, rat, plasma, iv, 50 mg/kg, rat plasma, DMAPE 50 mg/kg intravenous): 0.21 ± 0.17 h; AUC(0-inf) [4, 9]: 11400 ± 3520 ng·h/mL; AUC(0-t) [4, 9]: 11300 ± 3520 ng·h/mL; Cmax [4, 9]: 8630 ± 2040 ng/mL; clearance [4, 9]: 77.5 mL/min/kg; half-life [4, 9]: 8.89 ± 4.8 h; MRT last [4, 9]: 3.91 ± 1.4 h; MRT inf [4, 9]: 4.64 ± 1.88 h; potency toward TrxR1 KD cells compared to CTRL KD cells [5]: elevated potency; toxicity on control CD34+ NBM cells and hBMSCs [6]: reduced toxicities; effects on NBM and hBMSC cells [6]: modest effects
2 | COc1cc(C(c2cc(OC)c3c(c2)OCO3)[C@@H]2COC(=O)[C@H]2CN(C)CCO)cc2c1OCO2 [DMAPE, (2S,3S)-6-Methyl (hydroxyethyl) amino-2,6-dihydropeperomin E] | burst of ROS | ~55 | ~90 | -13.1 | -11.0 | -11.3 | 11.2 | 3.0 | -1.3 | -5.1 | 3.3 | -3.7 | stable | 25400 ± 8950 | 25200 ± 8960 | 5760 ± 2510 | 4.26 ± 1.63 | 4.9 ± 0.42 | 5.29 ± 0.32 | ≤ 0.85 | bioavailability ([4]; male, Sprague-Dawley, rat, plasma, oral, 50 mg/kg, rat, DMAPE 50 mg/kg intragastric vs intravenous, read-out: Bioavailability, F): 85%; AUC(0-inf) [4, 9]: 30000 ± 7010 ng·h/mL; AUC(0-t) [4, 9]: 29900 ± 7070 ng·h/mL; Cmax [4, 9]: 21700 ± 3590 ng/mL; clearance [4, 9]: 29 mL/min/kg; half-life [4, 9]: 4.33 ± 1.77 h; MRT last [4, 9]: 2.61 ± 0.86 h; MRT inf [4, 9]: 2.73 ± 0.85 h; CL ([4]; rat plasma, DMAPE 50 mg/kg intragastric): 35.7 ± 10.2 mL/min/kg; potency toward TrxR1 KD cells compared to CTRL KD cells [5]: elevated potency; toxicity on control CD34+ NBM cells and hBMSCs [6]: reduced toxicities; effects on NBM and hBMSC cells [6]: relatively safe

Reference: publication PMC6434189, “Peperomin E and its orally bioavailable analog induce oxidative stress-mediated apoptosis of acute myeloid leukemia progenitor cells by targeting thioredoxin reductase” (Redox Biology, 2019)
